Assay results taken from patent US7084136B2, “Drug composition antagonistic to both PGD2/TXA2 receptors” (Shionogi & Co., Ltd., priority 2000, dated 2006).
Read-outs that look alike come from different tables or passages of the source.

Key:
[1] = target: T1, PGD2 receptor (Homo sapiens, UniProt Q13258); test: Binding activity to PGD2 receptor ([3H]PGD2, human platelet membrane fraction)
T1 construct: A suspension adjusted to contain the platelets at a final concentration of 5×10^8/ml was warmed at 37° C; endogenous in cells; host or cells: washed human platelets from a healthy volunteer
T1 sequence (Q13258 1-359): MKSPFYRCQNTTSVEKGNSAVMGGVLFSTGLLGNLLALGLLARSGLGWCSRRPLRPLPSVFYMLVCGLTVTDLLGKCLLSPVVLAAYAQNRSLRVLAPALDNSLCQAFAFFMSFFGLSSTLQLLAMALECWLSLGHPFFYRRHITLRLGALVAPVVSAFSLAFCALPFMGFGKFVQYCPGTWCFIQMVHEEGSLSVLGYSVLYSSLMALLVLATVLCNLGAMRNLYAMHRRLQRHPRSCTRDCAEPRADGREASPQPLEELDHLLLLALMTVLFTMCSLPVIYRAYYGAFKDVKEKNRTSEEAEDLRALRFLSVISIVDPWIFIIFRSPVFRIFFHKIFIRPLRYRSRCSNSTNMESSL
Experimental: Experiment 1 Binding Activity to PGD2 Receptor
(§1) (1) Preparation of Human Platelet Membrane Fraction
Blood was collected using a plastic syringe containing 3.8% sodium citrate from the vein of healthy volunteers (adult male and female), then put into a plastic test tube and mixed by slow-reversion. The sample was then centrifuged at 1800 rpm, for 10 min at room temperature, and the supernatant containing PRP (platelet-rich plasma) was collected. The PRP was re-centrifuged at 2300 rpm, for 22 min at room temperature to obtain platelets. The platelets were homogenized using a homogenizer (Ultra-Turrax) followed by centrifugation 3 times at 20,000 rpm, 10 min at 4° C. to obtain a platelet membrane fraction. After protein determination, the membrane fraction was adjusted to 2 mg/ml and preserved in a refrigerator at −80° C. until using for the binding test.
(2) Binding to PGD2 Receptor
To a binding-reaction solution (50 mM Tris/HCl, pH 7.4, 5 mM MgCl2) (0.2 ml) were added the human platelet membrane fraction (0.1 mg) and 5 nM [^3H]PGD2 (115 Ci/mmol), and the mixture was reacted at 4° C. for 90 min. After the reaction, the mixture was filtered through a glass fiber filter paper and washed several times with cooled physiological saline, then the radioactivity retained on the filter paper was measured. The specific-binding ratio was calculated by subtracting the non-specific binding ratio which is the radioactivity similarly measured in the presence of 10 μM PGD2 from the total binding. The inhibitory activity of each compound was expressed as the concentration required for 50% inhibition (IC50), which was determined by depicting a substitution curve by plotting the binding ratio (%) in the presence of each compound, where the binding ratio in the absence of a test compound is 100%.

[2] = target: T2, TXA2 receptor (Homo sapiens, UniProt P21731); test: Binding activity to TXA2 receptor ([3H](+)-S-145 sodium salt, human platelet membrane fraction)
T2 construct: The human platelet membrane fraction was prepared in accordance with Experiment 1 (1); from tissue; host or cells: human platelet membrane fraction from blood of healthy volunteers
T2 sequence (P21731 1-343): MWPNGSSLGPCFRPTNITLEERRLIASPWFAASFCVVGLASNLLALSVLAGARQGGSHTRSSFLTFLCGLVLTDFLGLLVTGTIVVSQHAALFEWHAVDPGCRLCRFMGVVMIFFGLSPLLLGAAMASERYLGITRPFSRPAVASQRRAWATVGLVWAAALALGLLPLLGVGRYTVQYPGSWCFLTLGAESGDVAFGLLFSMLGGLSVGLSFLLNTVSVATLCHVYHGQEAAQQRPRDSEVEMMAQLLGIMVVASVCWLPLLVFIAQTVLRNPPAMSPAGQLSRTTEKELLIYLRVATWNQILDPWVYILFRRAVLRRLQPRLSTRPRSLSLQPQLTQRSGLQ
Experimental: Experiment 2 Binding Activity to TXA2 Receptor
as §1
The human platelet membrane fraction was prepared in accordance with Experiment 1 (1).
(2) Binding to TXA2 Receptor
To a binding-reaction solution (50 mM Tris/HCl, pH 7.4, 10 mM MgCl2) (0.2 ml) were added the human platelet membrane fraction (0.05 mg) and 2 nM Sodium [^3H](+)-(5Z)-7-[3-endo-[(phenylsulfonyl)amino]bicyclo[2.2.1]hept-2-exo-yl]heptenoate (Japanese Patent Publication (Kokoku) No.79060/1993, hereinafter referred to as (+)-S-145 sodium salt) (26.4 Ci/mmol), and the mixture was reacted at room temperature for 90 min. After the reaction, the resultant mixture was filtered through a glass fiber filter paper and washed several times with cooled physiological saline, then the radioactivity retained on the filter paper was measured. The specific-binding ratio was calculated by subtracting the non-specific binding ratio (the radio activity similarly determined in the presence of 10 μM (+)-S-145 sodium salt) from the total binding. The inhibitory activity of each compound was expressed as the concentration required for 50% inhibition (IC50), which was determined by depicting a substitution curve by plotting the binding ratio (%) in the presence of each compound, where the binding ratio in the absence of a test compound is 100%.

[3] = target: T1, PGD2 receptor; test: Antagonistic activity against PGD2 receptor using human platelet (inhibition of PGD2-induced cAMP increase); format: cell-based
Experimental: Experiment 3 Evaluation of Antagonistic Activity Against PGD2 Receptor
Receptor Using Human Platelet
Peripheral blood was collected from a healthy volunteer using a syringe in which 1/9 volume of a citric acid/dextrose solution was previously added. The sample was subjected to centrifugation at 1200 rpm for 10 min to obtain the supernatant (PRP: platelet rich plasma). The resultant PRP was washed 3 times with a washing buffer and the number of platelets was counted with a micro cell counter. A suspension adjusted to contain the platelets at a final concentration of 5×10^8/ml was warmed at 37° C., then subjected to the pre-treatment with 3-isobutyl-1-methylxanthine (0.5 mM) for 5 min. To the suspension was added a test compound diluted at various concentration, and 10 minutes later, 0.1 μM PGD2 was added to induce the reaction 2 minutes later, hydrochloric acid was added to terminate the reaction. The platelet was destroyed with an ultrasonic homogenizer. After centrifugation, the cAMP in the supernatant was determined by radioimmunoassay. PGD2 receptor antagonism of a drug was evaluated as follows: the inhibition rate regarding cAMP increased by the addition of PGD2 was determined at each concentration, and the concentration of the drug required for 50% inhibition (IC50) was calculated.

[4] = human platelet membrane fraction, 2 nM [3H](+)-S-145 sodium salt, read-out: Binding activity to TXA2 receptor in human platelet membrane fraction IC50
[5] = human platelet, 0.1 μM PGD2, read-out: Inhibitory activity for the increase of cAMP caused by PGD2 in human platelet IC50
[6] = human platelet membrane fraction, read-out: Binding activity to PGD2 receptor in human platelet membrane fraction IC50

IC50 ([1]; comparative experiment in accordance with Experiment 1, read-out: Experiment 1 Antagonistic activity against PGD2 receptor IC50)	IC50 ([2]; comparative experiment in accordance with Experiment 2, read-out: Experiment 2 Antagonistic activity against TXA2 receptor IC50)	IC50 ([3]; comparative experiment in accordance with Experiment 3, read-out: Experiment 3 Antagonistic activity against PGD2 receptor IC50)	IC50 [2, 4]	IC50 [3, 5]	IC50 [1, 6]	Compound
22 nM	370 nM	30 nM	–	–	–	CC1(C)[C@H]2C[C@H](C/C=C\CCCC(=O)O)[C@@H](NC(=O)c3csc4ccccc34)[C@@H]1C2 [B-1, reference compound]
–	–	–	11 nM	79 nM	–	O=C(O)CCCC[C@H]1[C@@H]2CC[C@@H](C2)[C@@H]1NC(=O)c1ccc(Sc2cccs2)s1 [I-5A-59a]
–	–	–	9.8 nM	12 nM	–	O=C(O)CCCCCC[C@H]1[C@@H]2CC[C@@H](C2)[C@@H]1NC(=O)c1ccc(Sc2cccs2)s1 [I-7A-59a]
–	–	–	40 nM	24 nM	–	O=C(O)COCCCC[C@H]1[C@@H]2CC[C@@H](C2)[C@@H]1NC(=O)c1ccc(Sc2cccs2)s1 [I-7M-59a]
–	–	–	92 nM	1.8 nM	1.6 nM	O=C(O)CCC/C=C\C[C@H]1[C@@H]2CC[C@@H](C2)[C@@H]1NC(=O)c1ccc(S(=O)(=O)n2cccc2)cc1 [I-10]
–	–	–	130 nM	5.7 nM	8.2 nM	O=C(O)CCC/C=C\C[C@H]1[C@@H]2CC[C@@H](C2)[C@@H]1NC(=O)c1ccc(Cc2ccccc2)s1 [I-31]
–	–	–	6.2 nM	7 nM	4.1 nM	O=C(O)CCC/C=C\C[C@H]1[C@@H]2CC[C@@H](C2)[C@@H]1NC(=O)c1ccc(S(=O)(=O)c2cccs2)s1 [I-47]
–	–	–	16 nM	4.6 nM	0.41 nM	O=C(O)CCC/C=C\C[C@H]1[C@@H]2CC[C@@H](C2)[C@@H]1NC(=O)c1ccc(Sc2cccs2)s1 [I-59]
–	–	–	34 nM	44 nM	4.6 nM	O=C(O)CCC/C=C\C[C@H]1[C@@H]2CC[C@@H](C2)[C@@H]1NC(=O)c1ccc(SCc2cccs2)cc1 [I-66]
–	–	–	61 nM	21 nM	–	COc1ccccc1Cc1ccc(C(=O)N[C@H]2[C@H]3CC[C@H](C3)[C@@H]2CCCC/C=C/C(=O)O)s1 [I-71-126a]
–	–	–	0.9 nM	26 nM	–	Cc1ccc(C)n1S(=O)(=O)c1ccc(C(=O)N[C@H]2[C@H]3CC[C@H](C3)[C@@H]2CCCC/C=C/C(=O)O)s1 [I-71-270a]
–	–	–	15 nM	24 nM	0.42 nM	O=C(O)CCC/C=C\C[C@H]1[C@@H]2CC[C@@H](C2)[C@@H]1NC(=O)c1ccc(Sc2ccsc2)s1 [I-79]
–	–	–	5.2 nM	39 nM	6.6 nM	O=C(O)CCC/C=C\C[C@H]1[C@@H]2CC[C@@H](C2)[C@@H]1NC(=O)c1ccc(S(=O)(=O)c2ccsc2)s1 [I-80]
–	–	–	1.8 nM	53 nM	32 nM	Cc1ccc(S(=O)(=O)c2ccc(C(=O)N[C@H]3[C@H]4CC[C@H](C4)[C@@H]3C/C=C\CCCC(=O)O)s2)s1 [I-82]
–	–	–	78 nM	4.7 nM	7.6 nM	O=C(O)CCC/C=C\C[C@H]1[C@@H]2CC[C@@H](C2)[C@@H]1NC(=O)c1cc(Cc2cccs2)cs1 [I-88]
–	–	–	72 nM	8.4 nM	7 nM	O=C(O)CCC/C=C\C[C@H]1[C@@H]2CC[C@@H](C2)[C@@H]1NC(=O)c1ccc(Cc2cccs2)s1 [I-93]
–	–	–	83 nM	10 nM	1 nM	O=C(O)CCC/C=C\C[C@H]1[C@@H]2CC[C@@H](C2)[C@@H]1NC(=O)c1ccn(S(=O)(=O)c2cccs2)c1 [I-94]
–	–	–	39 nM	1.6 nM	0.1 nM	O=C(O)CCC/C=C\C[C@H]1[C@@H]2CC[C@@H](C2)[C@@H]1NC(=O)c1ccc(CSc2cccs2)s1 [I-104]
–	–	–	13 nM	9.3 nM	13 nM	O=C(O)CCC/C=C\C[C@H]1[C@@H]2CC[C@@H](C2)[C@@H]1NC(=O)c1ccc(SCc2cccs2)s1 [I-106]
–	–	–	3.8 nM	47 nM	9.1 nM	O=C(O)CCC/C=C\C[C@H]1[C@@H]2CC[C@@H](C2)[C@@H]1NC(=O)c1ccc(S(=O)(=O)c2cccc(O)c2)s1 [I-117]
–	–	–	48 nM	10 nM	20 nM	Cc1ccc(Cc2ccc(C(=O)N[C@H]3[C@H]4CC[C@H](C4)[C@@H]3C/C=C\CCCC(=O)O)s2)c(C)c1 [I-128]
–	–	–	52 nM	22 nM	11 nM	Cc1ccc(Cc2ccc(C(=O)N[C@H]3[C@H]4CC[C@H](C4)[C@@H]3C/C=C\CCCC(=O)O)s2)s1 [I-129]
–	–	–	19 nM	41 nM	44 nM	Cc1cccc(Cc2ccc(C(=O)N[C@H]3[C@H]4CC[C@H](C4)[C@@H]3C/C=C\CCCC(=O)O)s2)c1 [I-131]
–	–	–	12 nM	43 nM	32 nM	Cc1cccc(SCc2ccc(C(=O)N[C@H]3[C@H]4CC[C@H](C4)[C@@H]3C/C=C\CCCC(=O)O)s2)c1 [I-132]
–	–	–	16 nM	15 nM	23 nM	O=C(O)CCC/C=C\C[C@H]1[C@@H]2CC[C@@H](C2)[C@@H]1NC(=O)c1ccc(Cc2cc3ccccc3o2)s1 [I-136]
–	–	–	19 nM	73 nM	44 nM	O=C(O)CCC/C=C\C[C@H]1[C@@H]2CC[C@@H](C2)[C@@H]1NC(=O)c1ccc(Cc2ccc(OCc3ccccc3)c(O)c2)s1 [I-146]
–	–	–	20 nM	85 nM	28 nM	O=C(O)CCC/C=C\C[C@H]1[C@@H]2CC[C@@H](C2)[C@@H]1NC(=O)c1cc2ccc(Cc3ccccc3)cc2s1 [I-160]
–	–	–	34 nM	29 nM	0.46 nM	O=C(O)CCC/C=C\C[C@H]1[C@@H]2CC[C@@H](C2)[C@@H]1NC(=O)c1csc2c(Cc3cccs3)cccc12 [I-168]
–	–	–	32 nM	26 nM	0.61 nM	O=C(O)CCC/C=C\C[C@H]1[C@@H]2CC[C@@H](C2)[C@@H]1NC(=O)c1csc2c(Cc3ccsc3)cccc12 [I-169]
